{"source": "patent US20190038689A1", "about": "“TOPICAL SKIN COMPOSITIONS FOR TREATING ERYTHEMA OR SKIN INFLAMMATION” (MARY KAY INC., priority 2017, published 2019)", "tested_on": "Nitric oxide synthases (NOS)", "assay": "Nitric Oxide Synthase Activity Assay (NO product measured as nitrite, improved Griess method)", "type": "biochemical", "settings": "for Nitric Oxide Synthase Activity: negative = reduction", "experimental": "Nitric Oxide Synthase Activity Assay:\nNitric oxide synthases (NOS) are a family of enzymes catalyzing the production of nitric oxide (NO) from L-arginine. NOS is an important mediator of vasodilation in blood vessels. This bioassay was used to analyze the effect of saccharide isomerate extract, Myrothamnus flabellifolia extract, [6]-paradol, and a combination of algae extract and mugwort (Artemisia vulgaris) extract on the activity of NOS. The bioassay is performed in the presence or absence of the test compound, test extract, or positive control during production of NO by NOS. To measure the activity of NOS, the NO product is allowed to oxidize to nitrite and nitrate and then the nitrate is reduced to nitrite and measured using an improved Griess method. It was shown that saccharide isomerate extract, Myrothamnus flabellifolia extract, [6]-paradol, and a combination of algae extract and mugwort (Artemisia vulgaris) extract reduced the activity of NOS greater than the 1 μM SIN-1 positive control.", "data": [{"smiles": "[NH-]c1c[n+](N2CCOCC2)no1", "note": "[SIN-1]", "values": [{"measurement": "activity of NOS was reduced by", "setting": "1 μM positive control", "result": "approximately 29%"}, {"measurement": "Nitric Oxide Synthase Activity", "setting": "1 μM, positive control", "result": "−28.7", "unit": "%"}]}, {"smiles": "CCCCCCCC(=O)CCc1ccc(O)c(OC)c1", "note": "[SYMRELIEF ® S, 1-(4-hydroxy-3-methoxyphenyl)decan-3-one]", "values": [{"measurement": "Nitric Oxide Synthase Activity", "setting": "1% ingredient", "result": "−46.617", "unit": "%"}, {"measurement": "activity of NOS was reduced by", "setting": "rounded values of Table 2 (1% ingredient)", "result": "~47", "unit": "%"}]}]}
